{
  "source": "patent US20230393140A1",
  "about": "“BINDING ASSAYS INVOLVING A PLURALITY OF SYNTHETIC COMPOUNDS, TARGETS, AND COUNTER TARGETS” (SRI International, priority 2020, published 2023)",
  "target": "T1, ASGPR (Homo sapiens, UniProt P07306)",
  "T1 construct": "purchased R&D Systems, Inc. 4394-AS",
  "T1 sequence (P07306 1-291)": "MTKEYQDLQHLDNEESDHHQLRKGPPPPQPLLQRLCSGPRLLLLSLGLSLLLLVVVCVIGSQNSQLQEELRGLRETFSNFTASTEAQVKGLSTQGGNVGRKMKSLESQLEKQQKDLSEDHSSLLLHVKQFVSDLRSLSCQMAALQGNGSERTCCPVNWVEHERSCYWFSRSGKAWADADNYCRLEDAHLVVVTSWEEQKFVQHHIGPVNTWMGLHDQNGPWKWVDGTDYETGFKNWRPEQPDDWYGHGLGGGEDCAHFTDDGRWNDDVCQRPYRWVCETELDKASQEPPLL",
  "experiment": "MST binding affinity of resynthesized NNP hits to ASGPR",
  "settings": "read-out: KD (nM) [95% conf. int]; MST; NNP1 library hit; target ASGPR; one-site binding model",
  "experimental": "Hit binding affinity to various targets were determined using Microscale Thermophoresis (MST). MST experiments were performed on a Monolith NT.115pico (NanoTemper Technologies GmbH, Munich, Germany). Measurements were performed at room temperature, in triplicate with incubation periods of 15, 30 and 45 minutes. […] Targets were labeled using Nanotemper Monolith 2nd Generation Protein Labeling Kits. RED-MALEIMIDE (Maleimide-647-dye) labeling kit was used for K-Ras and RED-NHS (NHS-647-dye) labeling kit was used for IL-6, IL-6R, TNFα and ASGPR. The buffer for the ASGPR contained 20 mM HEPES pH 7.4, 150 mM NaCl, 10 mM MgCl2, 2 mM CaCl2, 0.05% Pluronic F-127, and 1 mM DTT; for IL-6 contained 20 mM HEPES pH 7.4, 150 mM KCl, 10 mM MgCl2, and 0.1% Pluronic F-127; for the soluble IL-6 receptor 20 mM HEPES pH 7.4, 150 mM NaCl, 10 mM MgCl2, and 0.05% Tween-20; for K-Ras 20 mM HEPES pH 7.4, 150 mM NaCl, 10 mM MgCl2, 0.05% Tween-20 and 1 mM DTT; for TNFα 10 mM HEPES pH 7.4, 150 mM NaCl, 10 mM MgCl2, 0.05% Polysorbate-20. Triplicate data was analyzed using MO.AffinityAnalysis software (NanoTemper Technologies GmbH).",
  "note": "Numbered stars: 1 amine (or outer) side, 2 acyl side, 3 side chain; on linkers, the order of the positions; unused ones are H or OH. Square brackets hold non-standard residues; d marks the D form. Peptide text beside a SMILES is read from it. * marks the point of attachment. 5FAM = O=C1OC2(c3ccc(O)cc3Oc3cc(O)ccc32)c2ccc(C(=O)*)cc21; NHCH2C6H4(4-CH2CONH2) = NC(=O)Cc1ccc(CN*)cc1; X1 = O=C(Cc1ccc(CN[*:1])cc1)[*:2]",
  "data": [
    {"compound": "CC(C)C[C@H](NC(=O)[C@@H](CCCNC(=N)N)NC(=O)[C@@H](CCCCN)NC(=O)[C@@H](CCC(=O)O)NC(=O)[C@@H](Cc1ccccc1)NC(=O)Cc1ccc(CNC(=O)[C@H](Cc2ccccc2)NC(=O)[C@@H](CO)NC(=O)[C@@H](CCC(=O)O)NC(=O)[C@H]2CCCN2C(=O)[C@@H](CC(C)C)NC(=O)c2ccc3c(c2)C(=O)OC32c3ccc(O)cc3Oc3cc(O)ccc32)cc1)C(=O)NCc1ccc(CC(=O)N[C@H](Cc2ccc(O)cc2)C(=O)N[C@H](CC(N)=O)C(=O)N[C@H](CCCNC(=N)N)C(=O)N[C@H](Cc2c[nH]cn2)C(=O)N[C@@H](Cc2ccccc2)C(=O)NCc2ccc(CC(=O)N[C@H](Cc3ccc(O)cc3)C(=O)N[C@@H](C(=O)N3CCC[C@@H]3C(=O)N[C@H](CCCNC(=N)N)C(=O)N[C@@H](C)C(=O)NCc3ccc(CC(=O)N[C@H](CCCNC(=N)N)C(=O)N[C@H](Cc4ccccc4)C(=O)N4CCC[C@@H]4C(=O)N[C@@H](C(=O)NCC(=O)NCc4ccc(CC(=O)N[C@H](CC(C)C)C(=O)N5CCC[C@@H]5C(=O)N[C@H](CCCNC(=N)N)C(=O)N[C@@H](C(=O)NCC(=O)NCc5ccc(CC(N)=O)cc5)[C@H](C)O)cc4)C(C)C)cc3)[C@H](C)O)cc2)cc1", "note": "[ASGPR-9-12] (5FAM-[dL][dP][dE][dS]F[X1][dF][dE][dK][dR]L[X1][dY][dN][dR][dH]F[X1][dY][dT][dP][dR]A[X1][dR][dF][dP][dV]G[X1][dL][dP][dR][dT]G-{NHCH2C6H4(4-CH2CONH2)})", "values": [
      {"measurement": "Kd", "value": 6, "unit": "nM"}
    ]},
    {"compound": "CC(C)C[C@H](NC(=O)CNC(=O)[C@@H](Cc1c[nH]cn1)NC(=O)[C@@H](CCCNC(=N)N)NC(=O)[C@H]1CCCN1C(=O)Cc1ccc(CNC(=O)[C@H](Cc2ccccc2)NC(=O)[C@@H](CO)NC(=O)[C@@H](CCCNC(=N)N)NC(=O)[C@H]2CCCN2C(=O)CNC(=O)Cc2ccc(CNC(=O)[C@H](C)NC(=O)[C@@H](CCCNC(=N)N)NC(=O)[C@H]3CCCN3C(=O)[C@H](NC(=O)CNC(=O)Cc3ccc(CNC(=O)[C@H](Cc4ccccc4)NC(=O)[C@@H](CO)NC(=O)[C@@H](CCC(=O)O)NC(=O)[C@H]4CCCN4C(=O)[C@@H](CC(C)C)NC(=O)c4ccc5c(c4)C(=O)OC54c5ccc(O)cc5Oc5cc(O)ccc54)cc3)C(C)C)cc2)cc1)C(=O)NCc1ccc(CC(=O)N[C@H](CCCNC(=N)N)C(=O)N[C@H](Cc2ccccc2)C(=O)N2CCC[C@@H]2C(=O)N[C@@H](C(=O)NCC(=O)NCc2ccc(CC(=O)N[C@H](CC(C)C)C(=O)N3CCC[C@@H]3C(=O)N[C@H](CCCNC(=N)N)C(=O)N[C@@H](C(=O)NCC(=O)NCc3ccc(CC(N)=O)cc3)[C@H](C)O)cc2)C(C)C)cc1", "note": "[ASGPR-9-14] (5FAM-[dL][dP][dE][dS]F[X1]G[dV][dP][dR]A[X1]G[dP][dR][dS]F[X1][dP][dR][dH]GL[X1][dR][dF][dP][dV]G[X1][dL][dP][dR][dT]G-{NHCH2C6H4(4-CH2CONH2)})", "values": [
      {"measurement": "Kd", "value": 20, "unit": "nM"}
    ]}
  ]
}
